These results are taken from patent US7442833B2, “Triphenylethylene compounds as selective estrogen receptor modulators” (SmithKline Beecham Corporation, priority 2003, dated 2008).

A short description of data set [1]: Equilibrium solubility in fasted state simulated intestinal fluid (SIF). The class given is physicochemical. Particulars: fassif, thermodynamic from solid, pH = 6.8. The text has this: Traditionally, prodrugs have often been used to increase the bioavailability of a drug via improvement of prodrug solubility by attaching a water-soluble moiety (the “progroup”) to a poorly water soluble parent drug (D. Fleisher, Adv. Drug Del. Rev. (1996) 19, 115-130, incorporated herein by reference).

Data set [2] concerns the target estrogen receptor subtype beta (Homo sapiens, UniProt Q92731). Particulars: relative to estradiol; reported by Weatherman, Chem. and Biol. (2001) 8, 427-436; cited from earlier work.
A short description of data set [3]: Rat oral pharmacokinetics: bioavailability of compound 1. The class given is in vivo, female CD (Charles River Sprague Dawley) rats. Particulars: for Bioavailability of 1 in Rat (% F): Table I; for Bioavailability of 1 in Rat: Table II. Here is the method: In order to study the pharmacokinetic behavior of the prodrugs of this invention, a single oral dose of a series of prodrugs as well as compound 1 was administered to female CD (Charles River Sprague Dawley) rats. Rats received each compound by oral gavage at a dose of 10 mg/kg. […]

For data set [4], the target named is estrogen receptor subtype alpha (Homo sapiens, UniProt P03372). Particulars: relative to estradiol; reported by Weatherman, Chem. and Biol. (2001) 8, 427-436; cited from earlier work.
Setting [5] is: single oral gavage 10 mg/kg, suspension in aqueous 0.5% HPMC and 0.1% polysorbate 80 (Tween 80).
Setting [6] is: oral, suspension in aqueous 0.5% HPMC and 0.1% polysorbate 80 (Tween 80).

In brackets after ≈: the same amount, converted by molar mass. Several values for one entry are separate records, joined by “and”; a condition that tells them apart may be missing. Equal values may be shown once. Where a name gives a salt, the structure may show the parent alone.

Sequence of estrogen receptor subtype beta (Q92731 whole entry): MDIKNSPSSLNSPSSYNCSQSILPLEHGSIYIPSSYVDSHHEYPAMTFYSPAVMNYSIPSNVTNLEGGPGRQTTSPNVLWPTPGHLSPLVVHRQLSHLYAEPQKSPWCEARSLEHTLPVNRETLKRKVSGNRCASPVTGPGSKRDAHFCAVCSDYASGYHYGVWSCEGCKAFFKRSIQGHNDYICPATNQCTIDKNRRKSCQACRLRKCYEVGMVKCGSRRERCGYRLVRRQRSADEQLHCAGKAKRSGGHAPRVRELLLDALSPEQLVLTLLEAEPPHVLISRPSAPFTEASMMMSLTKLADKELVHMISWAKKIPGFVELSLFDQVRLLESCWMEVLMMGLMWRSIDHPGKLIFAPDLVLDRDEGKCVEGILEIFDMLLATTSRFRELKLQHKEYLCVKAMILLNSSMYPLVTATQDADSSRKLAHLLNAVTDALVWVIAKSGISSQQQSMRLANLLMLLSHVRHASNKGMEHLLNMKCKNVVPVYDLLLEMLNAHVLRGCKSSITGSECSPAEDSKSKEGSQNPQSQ
Sequence of estrogen receptor subtype alpha (P03372 whole entry): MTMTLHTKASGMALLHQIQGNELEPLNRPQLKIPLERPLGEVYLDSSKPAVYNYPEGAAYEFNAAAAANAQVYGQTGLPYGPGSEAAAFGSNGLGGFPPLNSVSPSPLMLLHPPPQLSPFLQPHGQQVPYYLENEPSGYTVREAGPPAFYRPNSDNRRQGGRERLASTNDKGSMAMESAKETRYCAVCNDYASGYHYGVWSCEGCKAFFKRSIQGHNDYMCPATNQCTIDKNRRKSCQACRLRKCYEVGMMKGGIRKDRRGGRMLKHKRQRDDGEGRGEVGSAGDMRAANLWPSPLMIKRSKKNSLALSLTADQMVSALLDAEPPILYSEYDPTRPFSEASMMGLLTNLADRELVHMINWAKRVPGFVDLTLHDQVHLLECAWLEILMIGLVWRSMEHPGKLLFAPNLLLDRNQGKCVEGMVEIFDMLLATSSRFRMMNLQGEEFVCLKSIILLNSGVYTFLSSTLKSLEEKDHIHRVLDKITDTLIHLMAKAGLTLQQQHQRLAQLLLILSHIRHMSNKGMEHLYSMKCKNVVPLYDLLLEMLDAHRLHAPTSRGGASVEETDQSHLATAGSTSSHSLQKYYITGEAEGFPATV

Broadly, the melting point is the temperature, or range, at which the solid turns liquid. `CC/C(=C(\c1ccc(/C=C/C(=O)O)cc1)c1ccc(OC(=O)CN(C)C)cc1)c1ccccc1` (as salt: salt) [Compound 23, (2E)-3-[4-((1Z)-1-{4-[(N,N-dimethylglycyl)oxy]phenyl}-2-phenylbut-1-enyl)phenyl]prop-2-enoic acid] displayed a melting point of 206 to 208 °C.

`CC/C(=C(\c1ccc(/C=C/C(=O)O)cc1)c1ccc(OC(=O)c2cccs2)cc1)c1ccccc1` (as salt: salt) [Compound 25, (2E)-3-[4-((1Z)-2-phenyl-1-{4-[(thien-2-ylcarbonyl)oxy]phenyl}but-1-enyl)phenyl]prop-2-enoic acid]: the melting point is 175 to 176 °C.

In turn, `CC/C(=C(\c1ccc(/C=C/C(=O)O)cc1)c1ccc(OC(=O)CCC(F)(F)F)cc1)c1ccccc1` (as salt: salt) [Compound 27, (2E)-3-[4-((1Z)-2-phenyl-1-{4-[(4,4,4-trifluorobutanoyl)oxy]phenyl}but-1-enyl)phenyl]prop-2-enoic acid] came in with a melting point of 162 to 163 °C.

Broadly, the thermodynamic solubility is solubility found after equilibrating the solid with the medium. The compound `CC/C(=C(/c1ccc(O)cc1)c1ccc(/C=C/C(=O)O)cc1)c1ccccc1` [Compound 1, (2E)-3-{4-[(1Z)-1-(4-Hydroxyphenyl)-2-phenylbut-1-enyl]phenyl}prop-2-enoic acid] came in with a thermodynamic solubility in data set [1] of 23 µg/mL (≈ 62.1 µM). The “binding affinity to estrogen receptor subtype beta, % that of estradiol” value in data set [2] is reported as 1%. For the same compound, the “Bioavailability of 1 in Rat (% F)” value in data set [3] (oral, solution in aqueous 20% hydroxypropoylcyclodextrin) was 29.0 % F; in data set [3] (setting [5]), 5.7 % F. The “Bioavailability of 1 in Rat” value in data set [3] (setting [6]) came out at 5.7 % F. In addition, the “binding affinity to estrogen receptor subtype alpha, % that of estradiol” value in data set [4] is 2%.

Regarding `CCC(=O)Oc1ccc(/C(=C(/CC)c2ccccc2)c2ccc(/C=C/C(=O)O)cc2)cc1` [Compound 7, (2E)-3-(4-{(1Z)-2-phenyl-1-[4-(propionyloxy)phenyl]but-1-enyl}phenyl)prop-2-enoic acid], the melting point was 155 to 157 °C and 158 to 160 °C. This compound also yielded a solubility (thermodynamic) in data set [1] of 61 µg/mL (≈ 143 µM). In addition, the “Bioavailability of 1 in Rat (% F)” value in data set [3] (setting [5]) came out at 86.6 % F. In addition, the “Bioavailability of 1 in Rat” value in data set [3] (setting [6]) is recorded as 86.6 % F.

Regarding `CC/C(=C(\c1ccc(/C=C/C(=O)O)cc1)c1ccc(OC(=O)c2ccccc2)cc1)c1ccccc1` [Compound 18, (2E)-3-(4-{(1Z)-1-[4-(benzoyloxy)phenyl]-2-phenylbut-1-enyl}phenyl)prop-2-enoic acid], the “Bioavailability of 1 in Rat (% F)” value in data set [3] (setting [5]) was determined as 12.3 % F.

Take `CC/C(=C(\c1ccc(/C=C/C(=O)O)cc1)c1ccc(OC(C)=O)cc1)c1ccccc1` [Compound 20, (2E)-3-(4-{(1Z)-1-[4-(acetyloxy)phenyl]-2-phenylbut-1-enyl}phenyl)prop-2-enoic acid]: in data set [1], the solubility (thermodynamic) is 129 µg/mL (≈ 313 µM). In data set [3] (setting [5]), the “Bioavailability of 1 in Rat (% F)” value was determined as 13.5 % F. In addition, the “Bioavailability of 1 in Rat” value in data set [3] (setting [6]) is 13.5 % F.

As for `CCCC(=O)Oc1ccc(/C(=C(/CC)c2ccccc2)c2ccc(/C=C/C(=O)O)cc2)cc1` [Compound 21, (2E)-3-(4-{(1Z)-1-[4-(butyryloxy)phenyl]-2-phenylbut-1-enyl}phenyl)prop-2-enoic acid], in data set [1], the thermodynamic solubility was 21 µg/mL (≈ 47.7 µM). For the same compound, in data set [3] (setting [5]), the “Bioavailability of 1 in Rat (% F)” value is recorded as 18.2 % F. Besides, the “Bioavailability of 1 in Rat” value in data set [3] (setting [6]) is given as 18.2 % F.

Take `CC/C(=C(\c1ccc(/C=C/C(=O)O)cc1)c1ccc(OC(=O)c2ccco2)cc1)c1ccccc1` [Compound 22, (2E)-3-(4-{(1Z)-1-[4-(2-Furoyloxy)phenyl]-2-phenyl-1-butenyl}phenyl)-2-propenoic acid]: the melting point is 170 to 172 °C. In data set [3] (setting [5]), the “Bioavailability of 1 in Rat (% F)” value is recorded as 16.9 % F.

The compound `CC/C(=C(\c1ccc(/C=C/C(=O)O)cc1)c1ccc(OC(=O)CN(C)C)cc1)c1ccccc1` [Compound 23, (2E)-3-[4-((1Z)-1-{4-[(N,N-dimethylglycyl)oxy]phenyl}-2-phenylbut-1-enyl)phenyl]prop-2-enoic acid] came in with a thermodynamic solubility in data set [1] of 15 µg/mL (≈ 32.9 µM). In addition, the “Bioavailability of 1 in Rat (% F)” value in data set [3] (setting [5]) is given as 38.3 % F. In addition, the “Bioavailability of 1 in Rat” value in data set [3] (setting [6]) was 38.3 % F.

`CC/C(=C(\c1ccc(/C=C/C(=O)O)cc1)c1ccc(OC(=O)c2ccno2)cc1)c1ccccc1` [Compound 24, (2E)-3-[4-((1Z)-1-{4-[(5-Isoxazolylcarbonyl)oxy]phenyl}-2-phenyl-1-butenyl)phenyl]-2-propenoic acid] gave a melting point of 141 to 142 °C. For the same compound, in data set [3] (setting [5]), the “Bioavailability of 1 in Rat (% F)” value was found to be 43.2 % F.

As to `CC/C(=C(\c1ccc(/C=C/C(=O)O)cc1)c1ccc(OC(=O)c2cccs2)cc1)c1ccccc1` [Compound 25, (2E)-3-[4-((1Z)-2-phenyl-1-{4-[(thien-2-ylcarbonyl)oxy]phenyl}but-1-enyl)phenyl]prop-2-enoic acid], the “Bioavailability of 1 in Rat (% F)” value in data set [3] (setting [5]) turned out to be 50.9 % F.

Compound `CC/C(=C(\c1ccc(/C=C/C(=O)O)cc1)c1ccc(OC(=O)CCOC)cc1)c1ccccc1` [Compound 26] had a melting point of 190 to 191 °C. Also, the “Bioavailability of 1 in Rat (% F)” value in data set [3] (setting [5]) came out at 52.4 % F.

Take `CC/C(=C(\c1ccc(/C=C/C(=O)O)cc1)c1ccc(OC(=O)CCC(F)(F)F)cc1)c1ccccc1` [Compound 27, (2E)-3-[4-((1Z)-2-phenyl-1-{4-[(4,4,4-trifluorobutanoyl)oxy]phenyl}but-1-enyl)phenyl]prop-2-enoic acid]: the “Bioavailability of 1 in Rat (% F)” value in data set [3] (setting [5]) is listed as 28.9 % F.

Take `CC/C(=C(\c1ccc(/C=C/C(=O)O)cc1)c1ccc(OC(=O)C(C)(C)C)cc1)c1ccccc1` [Compound 28, (2E)-3-[4-((1Z)-1-{4-[(2,2-dimethylpropanoyl)oxy]phenyl}-2-phenylbut-1-enyl)phenyl]prop-2-enoic acid]: in data set [3] (setting [5]), the “Bioavailability of 1 in Rat (% F)” value is 3.5 % F.

Turning to `CC/C(=C(\c1ccc(/C=C/C(=O)O)cc1)c1ccc(OC(=O)C2CCCCC2)cc1)c1ccccc1` [Compound 29, (2E)-3-[4-((1Z)-1-{4-[(cyclohexylcarbonyl)oxy]phenyl}-2-phenylbut-1-enyl)phenyl]prop-2-enoic acid], the “Bioavailability of 1 in Rat (% F)” value in data set [3] (setting [5]) stood at 3.3 % F.

Turning to `CC/C(=C(\c1ccc(/C=C/C(=O)O)cc1)c1ccc(OC(=O)CN2CCOCC2)cc1)c1ccccc1` [Compound 31, (2E)-3-[4-((1Z)-1-{4-[(morpholin-4-ylacetyl)oxy]phenyl}-2-phenylbut-1-enyl)phenyl]prop-2-enoic acid], the “Bioavailability of 1 in Rat (% F)” value in data set [3] (setting [5]) stood at 21.3 % F.

As for `CC/C(=C(\c1ccc(/C=C/C(=O)O)cc1)c1ccc(OC(=O)CN2CCCCC2)cc1)c1ccccc1` [Compound 33, (2E)-3-[4-((1Z)-2-phenyl-1-{4-[(piperidin-1-ylacetyl)oxy]phenyl}but-1-enyl)phenyl]prop-2-enoic acid], the “Bioavailability of 1 in Rat (% F)” value in data set [3] (setting [5]) is 13.9 % F.

As for `CC/C(=C(\c1ccc(/C=C/C(=O)O)cc1)c1ccc(OC(=O)CN2CCN(C)CC2)cc1)c1ccccc1` [Compound 34, (2E)-3-{4-[(1Z)-1-(4-{[(4-methylpiperazin-1-yl)acetyl]oxy}phenyl)-2-phenylbut-1-enyl]phenyl}prop-2-enoic acid], in data set [3] (setting [5]), the “Bioavailability of 1 in Rat (% F)” value came out at 13.4 % F.

The compound `CC/C(=C(\c1ccc(/C=C/C(=O)O)cc1)c1ccc(OP(=O)(O)O)cc1)c1ccccc1` [Compound 35, (2E)-3-(4-{(1Z)-2-Phenyl-1-[4-(phosphonooxy)phenyl]-1-butenyl}phenyl)-2-propenoic acid] had a melting point of 181 to 183 °C. Moreover, in data set [1], the solubility (thermodynamic) is > 1000 µg/mL. Besides, the “Bioavailability of 1 in Rat (% F)” value in data set [3] (setting [5]) turned out to be 37.0 % F. Further, the “Bioavailability of 1 in Rat” value in data set [3] (setting [6]) was 37.0 % F.

In the case of `CCOC(=O)Oc1ccc(/C(=C(/CC)c2ccccc2)c2ccc(/C=C/C(=O)O)cc2)cc1` [Compound 37, (2E)-3-[4-((1Z)-1-{4-[(Ethoxycarbonyl)oxy]phenyl}-2-phenyl-1-butenyl)phenyl]-2-propenoic acid], the melting point lay within 135 to 136 °C. In data set [3] (setting [5]), the “Bioavailability of 1 in Rat (% F)” value amounted to 43.2 % F.

In the case of `CC/C(=C(\c1ccc(/C=C/C(=O)O)cc1)c1ccc(OC(=O)OC)cc1)c1ccccc1` [Compound 40, (2E)-3-[4-((1Z)-1-{4-[(Methoxycarbonyl)oxy]phenyl}-2-phenyl-1-butenyl)phenyl]-2-propenoic acid], the melting point was 140 to 142 °C. For the same compound, in data set [3] (setting [5]), the “Bioavailability of 1 in Rat (% F)” value turned out to be 21.9 % F.
